From ChEMBL document CHEMBL1201862, “PubChem BioAssay data set” (2004)
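Following 48 hours of exposure in 96-well plates, responses at five concentrations were used to interpolate endpoints linearly. GI50: concentration for 50% inhibition of growth.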 The source made the active and inactive calls. Cut-off read from the data, not from the text of the source: active = GI50 up to about 1.1 µM and inactive = higher.

Tests used:
Experiment in all cases: inhibition of tumour cell growth, NCI panel, 48 h
NCI-H23 = system: NCI-H23
PC-3 = system: PC-3
T47D = system: T47D
MDA-MB-231 = system: MDA-MB-231
HT-29 = system: HT-29
MCF7 = system: MCF7
UACC-62 = system: UACC-62
U-251 = system: U-251
CAKI-1 = system: CAKI-1
OVCAR-4 = system: OVCAR-4
NCI-H460 = system: NCI-H460
HOP-92 = system: HOP-92
UACC-257 = system: UACC-257
SN12C = system: SN12C
LOX IMVI = system: LOX IMVI
EKVX = system: EKVX
HOP-62 = system: HOP-62
TK-10 = system: TK-10
M14 = system: M14
SR = system: SR

Measured: GI50

COc1ccccc1/C(=N\OCCC(=O)O)c1cccs1
inactive: NCI-H23 > 100 µM | PC-3 > 100 µM | T47D > 100 µM | MDA-MB-231 > 100 µM | HT-29 > 100 µM | MCF7 > 100 µM | UACC-62 > 100 µM | U-251 > 100 µM | CAKI-1 > 100 µM | OVCAR-4 > 100 µM | NCI-H460 > 100 µM | HOP-92 > 100 µM | UACC-257 > 100 µM | SN12C > 100 µM | LOX IMVI > 100 µM | EKVX > 100 µM | HOP-62 > 100 µM | TK-10 > 100 µM

COC(=O)C(=O)C(C(=O)C(=O)Nc1ccccc1C(=O)OC)c1nc2ccc(C(=O)c3ccccc3)cc2nc1O (stereo not drawn)
inactive: NCI-H23 64.3 µM | PC-3 40.4 µM | T47D 38.3 µM | MDA-MB-231 76.4 µM | M14 > 100 µM | HT-29 41.1 µM | MCF7 66.5 µM | UACC-62 > 100 µM | U-251 > 100 µM | CAKI-1 30.5 µM | OVCAR-4 24.9 µM | NCI-H460 51.3 µM | HOP-92 > 100 µM | UACC-257 > 100 µM | SN12C 64.7 µM | LOX IMVI 87.3 µM | EKVX 80.4 µM | HOP-62 55 µM | TK-10 > 100 µM

COc1cc(OC)cc(-c2nc(O)c3ccccc3n2)c1
inactive: NCI-H23 > 100 µM | PC-3 > 100 µM | T47D > 100 µM | MDA-MB-231 86.1 µM | M14 > 100 µM | HT-29 > 100 µM | UACC-62 > 100 µM | U-251 39.3 µM | CAKI-1 > 100 µM | OVCAR-4 > 100 µM | NCI-H460 28.3 µM | HOP-92 > 100 µM | UACC-257 > 100 µM | SN12C > 100 µM | LOX IMVI > 100 µM | EKVX > 100 µM | HOP-62 38.9 µM | TK-10 43.5 µM

CC(=O)NC1C(CO)O[C@@H]2OC(C)(C)O[C@H]12 (stereo partly drawn)
inactive: NCI-H23 > 100 µM | PC-3 > 100 µM | MDA-MB-231 > 100 µM | M14 > 100 µM | HT-29 > 100 µM | MCF7 > 100 µM | UACC-62 > 100 µM | U-251 > 100 µM | CAKI-1 > 100 µM | OVCAR-4 > 100 µM | NCI-H460 > 100 µM | HOP-92 > 100 µM | UACC-257 > 100 µM | SN12C > 100 µM | LOX IMVI > 100 µM | EKVX > 100 µM | HOP-62 > 100 µM | TK-10 > 100 µM

[N-]=[N+]=NC(c1cn(C2CC(O)C(CO)O2)c(=O)[nH]c1=O)C(I)I (stereo not drawn)
inactive: NCI-H23 71 µM | M14 > 100 µM | HT-29 > 100 µM | UACC-62 > 100 µM | U-251 > 100 µM | CAKI-1 > 100 µM | OVCAR-4 75.7 µM | NCI-H460 > 100 µM | HOP-92 > 100 µM | UACC-257 > 100 µM | SN12C > 100 µM | LOX IMVI > 100 µM | EKVX > 100 µM | HOP-62 > 100 µM | TK-10 > 100 µM | SR > 100 µM

O=C(/C=C(\S/C=C(/c1ccccc1)N1CCn2c(C(=O)c3ccccc3)c(C(=O)c3ccccc3)c(C(=O)c3ccccc3)c21)C(=O)c1ccccc1)c1ccccc1
inactive: NCI-H23 > 10 µM | PC-3 > 10 µM | T47D > 10 µM | MDA-MB-231 > 10 µM | M14 > 10 µM | HT-29 > 10 µM | MCF7 > 10 µM | UACC-62 > 10 µM | U-251 > 10 µM | CAKI-1 > 10 µM | OVCAR-4 > 10 µM | NCI-H460 > 10 µM | HOP-92 > 10 µM | UACC-257 > 10 µM | SN12C > 10 µM | EKVX > 10 µM | HOP-62 > 10 µM | TK-10 > 10 µM

O=c1cnc2cc3ccccc3cc2[nH]1
inactive: NCI-H23 > 100 µM | PC-3 > 100 µM | MDA-MB-231 75.7 µM | M14 > 100 µM | HT-29 > 100 µM | MCF7 > 100 µM | U-251 > 100 µM | CAKI-1 > 100 µM | OVCAR-4 > 100 µM | NCI-H460 > 100 µM | HOP-92 > 100 µM | UACC-257 > 100 µM | SN12C > 100 µM | LOX IMVI > 100 µM | EKVX 1.57 µM | HOP-62 > 100 µM | TK-10 > 100 µM | SR > 100 µM

CCOC(=O)c1cc(NC(=O)N(CCC#N)CCN(C(=O)N[C@@H](Cc2ccccc2)C(=O)N[C@@H](CC(C)C)C(=O)NC)c2ccccc2)ccc1OC
inactive: NCI-H23 37.3 µM | PC-3 49.4 µM | T47D 28.1 µM | MDA-MB-231 74.5 µM | M14 99.5 µM | MCF7 58.6 µM | UACC-62 4.76 µM | U-251 > 10 µM | CAKI-1 > 100 µM | OVCAR-4 44 µM | HOP-92 34.3 µM | UACC-257 24 µM | SN12C 33.7 µM | LOX IMVI 18.2 µM | EKVX 63.1 µM | HOP-62 41.8 µM | TK-10 46.5 µM

COc1cc2c(cc1OC)C1=Cc3cc(OC)c(OC)cc3C(C)N1C=C2 (stereo not drawn)
inactive: NCI-H23 > 100 µM | PC-3 12.3 µM | T47D 29.3 µM | M14 > 100 µM | HT-29 74.3 µM | MCF7 21 µM | UACC-62 75.7 µM | U-251 37.2 µM | NCI-H460 47.1 µM | HOP-92 > 100 µM | UACC-257 33.7 µM | SN12C 87.5 µM | EKVX > 100 µM | HOP-62 44.2 µM | TK-10 83.4 µM

C[n+]1c2ccc(Cl)cc2nc2cc(-c3ccccc3)ccc21
inactive: NCI-H23 5.41 µM | PC-3 10.5 µM | MDA-MB-231 8.63 µM | M14 4.65 µM | HT-29 2.9 µM | MCF7 1.32 µM | UACC-62 18.4 µM | U-251 5.21 µM | CAKI-1 16.4 µM | OVCAR-4 18.5 µM | NCI-H460 14.9 µM | UACC-257 15.6 µM | SN12C 4.24 µM | LOX IMVI 5.69 µM | EKVX 10.8 µM | HOP-62 23 µM | TK-10 22.8 µM | SR 2.67 µM

CCOC(OC1=C(C#N)CCC1)C(CC)[Se]c1ccccc1 (stereo not drawn)
inactive: NCI-H23 9.98 µM | M14 15.2 µM | HT-29 26.4 µM | UACC-62 19 µM | U-251 10.3 µM | CAKI-1 41 µM | OVCAR-4 16.1 µM | NCI-H460 36.4 µM | HOP-92 23.4 µM | UACC-257 80.9 µM | SN12C 14.3 µM | LOX IMVI 4.5 µM | EKVX 35.7 µM | HOP-62 > 100 µM | TK-10 > 100 µM | SR 7.19 µM

C=C(Cl)C(=C)CCC(Cl)C(C)(C)Cl (stereo not drawn)
inactive: NCI-H23 > 100 µM | PC-3 > 100 µM | MDA-MB-231 > 100 µM | M14 > 100 µM | HT-29 > 100 µM | MCF7 > 100 µM | UACC-62 > 100 µM | U-251 > 100 µM | CAKI-1 > 100 µM | OVCAR-4 > 100 µM | NCI-H460 > 100 µM | HOP-92 > 100 µM | UACC-257 > 100 µM | SN12C > 100 µM | LOX IMVI > 100 µM | EKVX > 100 µM | HOP-62 > 100 µM | TK-10 > 100 µM | SR > 100 µM

CC(C)[C@@H]1NC(=O)[C@H]2N=C(O[C@@H]2C)[C@@H]2CCCN2C(=O)[C@H](Cc2ccccc2)NC(=O)[C@@H]2CSC(=N2)[C@@H](Cc2ccccc2)NC(=O)[C@@H]2CSC1=N2
inactive: NCI-H23 > 50 µM | PC-3 21.8 µM | T47D > 50 µM | MDA-MB-231 > 50 µM | M14 > 50 µM | HT-29 38.8 µM | MCF7 18.9 µM | UACC-62 > 50 µM | U-251 > 50 µM | CAKI-1 > 50 µM | OVCAR-4 19.8 µM | UACC-257 > 50 µM | SN12C > 50 µM | LOX IMVI 23.7 µM | EKVX > 50 µM | HOP-62 > 50 µM | TK-10 > 50 µM

C=C1C(=O)O[C@H]2C1C[C@H](O)/C(C)=C/CC[C@@]1(C)O[C@H]21 (stereo partly drawn)
inactive: NCI-H23 19 µM | MDA-MB-231 18.9 µM | M14 10.4 µM | HT-29 23.3 µM | MCF7 13.2 µM | UACC-62 10.9 µM | U-251 > 100 µM | CAKI-1 14.5 µM | OVCAR-4 14.1 µM | NCI-H460 > 10 µM | HOP-92 17.3 µM | UACC-257 16.7 µM | SN12C 18.2 µM | LOX IMVI 9.29 µM | EKVX 19 µM | HOP-62 33.7 µM | TK-10 15.6 µM | SR 6.04 µM

Cc1ccccc1-c1nc2c(N)nc(N)nc2nc1N
inactive: NCI-H23 4.95 µM | PC-3 4.46 µM | MDA-MB-231 3.3 µM | M14 > 100 µM | HT-29 > 100 µM | MCF7 30.2 µM | UACC-62 4.91 µM | U-251 4.33 µM | CAKI-1 9.35 µM | OVCAR-4 > 100 µM | NCI-H460 3.69 µM | UACC-257 86.3 µM | SN12C 6.84 µM | LOX IMVI 3.44 µM | EKVX 38.1 µM | HOP-62 25.9 µM | TK-10 > 100 µM | SR 62.7 µM
